Assay results published in publication PMC2926596 (Nucleic Acids Research, 2010).

Target: T1, ϕ6 P2 (RNA-directed RNA polymerase, RdRP) (Pseudomonas phage phi6, UniProt P11124)
T1 sequence (P11124 1-665): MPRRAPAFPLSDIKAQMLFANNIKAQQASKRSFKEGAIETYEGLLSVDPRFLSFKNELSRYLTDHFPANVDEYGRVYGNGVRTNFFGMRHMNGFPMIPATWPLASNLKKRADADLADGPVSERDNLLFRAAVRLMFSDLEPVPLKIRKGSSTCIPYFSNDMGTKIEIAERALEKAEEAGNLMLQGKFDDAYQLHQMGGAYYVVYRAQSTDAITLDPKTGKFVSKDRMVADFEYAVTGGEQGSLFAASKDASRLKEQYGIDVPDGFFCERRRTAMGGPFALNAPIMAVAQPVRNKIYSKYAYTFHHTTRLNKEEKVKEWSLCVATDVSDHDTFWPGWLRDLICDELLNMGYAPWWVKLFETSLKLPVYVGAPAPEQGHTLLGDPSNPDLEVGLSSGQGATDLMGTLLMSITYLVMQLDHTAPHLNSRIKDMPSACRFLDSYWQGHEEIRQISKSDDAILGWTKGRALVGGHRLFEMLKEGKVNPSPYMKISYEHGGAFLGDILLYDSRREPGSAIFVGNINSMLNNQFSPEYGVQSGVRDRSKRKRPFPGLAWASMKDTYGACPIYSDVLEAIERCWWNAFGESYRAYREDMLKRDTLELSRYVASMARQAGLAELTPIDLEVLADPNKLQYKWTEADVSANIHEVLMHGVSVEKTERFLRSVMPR
Assay: tryptophan fluorescence quenching titration
Assay type: binding

Compound	Kd
Nc1nc2c(ncn2[C@@H]2O[C@H](COP(=O)(O)CP(=O)(O)OP(=O)(O)O)[C@@H](O)[C@H]2O)c(=O)[nH]1 [GMPCPP]	271 ± 31 µM
Nc1nc2c(ncn2[C@@H]2O[C@H](COP(=O)(O)OP(=O)(O)NP(=O)(O)O)[C@@H](O)[C@H]2O)c(=O)[nH]1 [GMPPNP]	317 ± 31 µM
